From patent US20070281330A1, “Method for Examining the Activity of Ion Channels” (priority 2004, published 2007)
Several values for one entry are separate records, joined by “and”; a condition that tells them apart may be missing. Equal values may be shown once.

What was measured:
sodium channel SCN5a = sodium channel SCN5a (Homo sapiens, UniProt Q14524); type: cell-based
Kv1.3 = target: T1, Kv1.3 (Homo sapiens, UniProt P22001); assay: FMP membrane potential assay on Kv1.3, suspension cells; type: cell-based; settings: 100 nM Margatoxin, FMP dye
T1 construct: expressed in transfected cells
T1 sequence (P22001 whole entry): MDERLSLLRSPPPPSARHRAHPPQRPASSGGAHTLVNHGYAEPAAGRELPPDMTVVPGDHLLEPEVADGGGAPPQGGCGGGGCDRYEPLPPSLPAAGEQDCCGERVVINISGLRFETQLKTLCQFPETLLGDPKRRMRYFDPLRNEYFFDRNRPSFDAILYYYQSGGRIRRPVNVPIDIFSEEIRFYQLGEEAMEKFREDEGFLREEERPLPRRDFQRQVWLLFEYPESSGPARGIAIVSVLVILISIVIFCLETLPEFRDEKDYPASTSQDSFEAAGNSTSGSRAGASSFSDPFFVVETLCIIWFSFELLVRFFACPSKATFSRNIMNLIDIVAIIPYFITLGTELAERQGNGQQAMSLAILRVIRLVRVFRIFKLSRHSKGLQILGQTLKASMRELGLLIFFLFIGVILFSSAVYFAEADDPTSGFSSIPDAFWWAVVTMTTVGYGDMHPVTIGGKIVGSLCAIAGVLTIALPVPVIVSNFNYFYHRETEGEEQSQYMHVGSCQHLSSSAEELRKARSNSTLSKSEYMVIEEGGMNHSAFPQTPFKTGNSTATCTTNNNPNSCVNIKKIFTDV

[1] = 110 min 1° C. (after 10 min room temperature)

Chain of sodium channel SCN5a (Q14524 whole entry, looked up): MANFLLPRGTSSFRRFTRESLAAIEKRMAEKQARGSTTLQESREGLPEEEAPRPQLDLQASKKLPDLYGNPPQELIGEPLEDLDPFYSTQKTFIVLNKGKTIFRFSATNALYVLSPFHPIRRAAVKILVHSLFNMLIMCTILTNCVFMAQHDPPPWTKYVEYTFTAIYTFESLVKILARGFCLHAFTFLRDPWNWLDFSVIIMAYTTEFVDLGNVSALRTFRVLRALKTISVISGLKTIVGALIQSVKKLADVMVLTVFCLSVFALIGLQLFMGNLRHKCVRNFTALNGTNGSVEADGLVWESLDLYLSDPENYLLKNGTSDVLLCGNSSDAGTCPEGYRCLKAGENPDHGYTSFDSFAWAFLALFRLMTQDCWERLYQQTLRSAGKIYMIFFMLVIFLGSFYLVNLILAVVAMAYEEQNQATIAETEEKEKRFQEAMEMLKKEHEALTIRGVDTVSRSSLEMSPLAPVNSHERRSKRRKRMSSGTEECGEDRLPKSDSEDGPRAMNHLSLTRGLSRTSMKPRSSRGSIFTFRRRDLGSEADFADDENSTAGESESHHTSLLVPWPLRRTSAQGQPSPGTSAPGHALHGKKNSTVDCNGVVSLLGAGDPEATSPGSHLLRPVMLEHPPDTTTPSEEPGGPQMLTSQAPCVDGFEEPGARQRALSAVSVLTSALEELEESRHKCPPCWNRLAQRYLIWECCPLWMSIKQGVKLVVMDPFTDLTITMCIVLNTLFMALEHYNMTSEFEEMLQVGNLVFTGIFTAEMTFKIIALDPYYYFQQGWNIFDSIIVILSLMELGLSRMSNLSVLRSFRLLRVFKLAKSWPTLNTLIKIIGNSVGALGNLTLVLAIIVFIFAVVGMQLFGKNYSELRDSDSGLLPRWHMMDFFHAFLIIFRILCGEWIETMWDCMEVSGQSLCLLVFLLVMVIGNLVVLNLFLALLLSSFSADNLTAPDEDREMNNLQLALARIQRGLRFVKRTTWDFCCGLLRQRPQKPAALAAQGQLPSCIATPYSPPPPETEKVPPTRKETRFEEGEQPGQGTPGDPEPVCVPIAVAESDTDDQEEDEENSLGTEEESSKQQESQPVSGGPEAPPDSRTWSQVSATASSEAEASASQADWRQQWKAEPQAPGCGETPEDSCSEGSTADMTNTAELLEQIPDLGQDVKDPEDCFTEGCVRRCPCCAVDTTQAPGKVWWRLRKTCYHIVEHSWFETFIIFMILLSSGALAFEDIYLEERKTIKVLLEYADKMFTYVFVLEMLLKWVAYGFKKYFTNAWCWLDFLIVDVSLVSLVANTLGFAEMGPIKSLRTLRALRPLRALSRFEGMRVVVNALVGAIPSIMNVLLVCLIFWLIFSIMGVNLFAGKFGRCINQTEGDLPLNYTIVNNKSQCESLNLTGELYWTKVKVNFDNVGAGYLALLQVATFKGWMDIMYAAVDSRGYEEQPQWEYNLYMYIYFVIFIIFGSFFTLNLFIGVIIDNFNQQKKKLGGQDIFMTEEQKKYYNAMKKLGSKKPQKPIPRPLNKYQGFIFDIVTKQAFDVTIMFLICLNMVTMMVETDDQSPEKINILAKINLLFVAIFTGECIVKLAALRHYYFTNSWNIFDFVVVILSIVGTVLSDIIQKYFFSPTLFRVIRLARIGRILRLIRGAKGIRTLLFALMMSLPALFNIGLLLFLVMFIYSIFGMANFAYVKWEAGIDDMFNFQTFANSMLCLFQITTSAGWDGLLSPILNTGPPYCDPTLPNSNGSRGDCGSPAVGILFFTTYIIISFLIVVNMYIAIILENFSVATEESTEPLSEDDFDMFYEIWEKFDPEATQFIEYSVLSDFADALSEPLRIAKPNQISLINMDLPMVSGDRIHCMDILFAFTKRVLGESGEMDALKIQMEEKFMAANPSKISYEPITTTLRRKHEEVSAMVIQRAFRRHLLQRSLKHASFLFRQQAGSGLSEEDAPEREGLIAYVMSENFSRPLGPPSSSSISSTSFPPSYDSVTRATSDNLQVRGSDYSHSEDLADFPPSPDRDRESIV

Question: With `NC1=N[C@H](O)[C@H]2[C@H]3O[C@]4(O)O[C@@H]([C@@H](O)[C@@]2(N1)[C@@H]4O)[C@]3(O)CO` [TTX, tetrodotoxin] as the compound, how does the “18° C. [RFUs]” value (sodium channel SCN5a) read?
Answer: Its value is 4636.0 RFUs and 5379.0 RFUs and 2882.0 RFUs and 3816.0 RFUs and 4067.0 RFUs and 4401.0 RFUs and 5620.0 RFUs and 5034.0 RFUs.

Question: Which “Increase [%]” value (Kv1.3; 10 min room temperature) does the source give for Margatoxin here?
Answer: Its value is 3% and 2.93%.

Question: What about the “[rfu]” value (Kv1.3; 10 min room temperature) of the same compound?
Answer: Its value is 22479.50 rfu.

Question: What about the “Increase [%]” value (Kv1.3; [1]) of the same compound?
Answer: Its value is 68% and 68.04%.

Question: What about the “[rfu]” value (Kv1.3; [1]) of the same compound?
Answer: Its value is 47474.00 rfu.
